Measurements: US20120101083A1, “S1P1 AGONISTS COMPRISING A BICYCLIC N-CONTAINING RING” (GLAXO GROUP LIMITED, priority 2009, published 2012)
Counter-ions that a name gives are not always drawn.

Assays:
[1] = target: T1, S1P1 receptor (S1P1 expressing RH7777 membranes) (Homo sapiens, UniProt P21453); assay: S1P1 GTPγS assay; type: biochemical; details: tested in one of the above S1P1 assays (two GTPγS formats)
T1 construct: expressed in transfected cells; host or cells: RH7777 cells (membranes)
How it was run: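 Membranes from RH7777 cells expressing human S1P1 (1.5 μg/well) precoupled 30 min on ice to WGA SPA beads in 20 mM HEPES pH 7.4, 10 mM MgCl2, 100 mM NaCl, with 10 μM GDP and 90 μg/ml saponin. [35S]-GTPγS 0.5 nM final added with compound; SPA signal read immediately.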

[2] = target: T2, S1P1 (PathHunter CHO-K1 EDG1 β-Arrestin cell line) (Homo sapiens, UniProt P21453); assay: S1P-1 β-Arrestin recruitment assay; type: cell-based; details: CHO-K1 EDG1 β-Arrestin cells, chemi-luminescence
T2 construct: host or cells: PathHunter CHO-K1 EDG1 β-Arrestin cell line
How it was run: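 CHO-K1 cells expressing S1P1 and β-arrestin 2 fused to complementing β-galactosidase fragments, at 1×10^4 cells/well in pH 7.4 buffer with 0.1% BSA. Compound exposure 90 min at 37 °C then 15 min room temperature; chemiluminescent substrate added for 60 min before luminescence read.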

T1 sequence (P21453 whole entry): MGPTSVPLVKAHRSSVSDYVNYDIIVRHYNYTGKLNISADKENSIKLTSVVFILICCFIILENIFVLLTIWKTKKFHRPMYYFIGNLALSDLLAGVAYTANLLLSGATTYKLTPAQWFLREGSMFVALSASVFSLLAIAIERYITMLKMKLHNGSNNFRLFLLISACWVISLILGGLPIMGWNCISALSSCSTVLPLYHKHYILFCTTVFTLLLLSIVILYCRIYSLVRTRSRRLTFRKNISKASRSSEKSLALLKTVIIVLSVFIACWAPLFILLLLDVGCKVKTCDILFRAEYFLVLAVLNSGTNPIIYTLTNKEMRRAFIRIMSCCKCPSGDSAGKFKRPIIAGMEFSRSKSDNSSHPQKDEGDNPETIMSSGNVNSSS
T2 sequence (P21453 whole entry): as above
T2 sequence (P32121 whole entry partner): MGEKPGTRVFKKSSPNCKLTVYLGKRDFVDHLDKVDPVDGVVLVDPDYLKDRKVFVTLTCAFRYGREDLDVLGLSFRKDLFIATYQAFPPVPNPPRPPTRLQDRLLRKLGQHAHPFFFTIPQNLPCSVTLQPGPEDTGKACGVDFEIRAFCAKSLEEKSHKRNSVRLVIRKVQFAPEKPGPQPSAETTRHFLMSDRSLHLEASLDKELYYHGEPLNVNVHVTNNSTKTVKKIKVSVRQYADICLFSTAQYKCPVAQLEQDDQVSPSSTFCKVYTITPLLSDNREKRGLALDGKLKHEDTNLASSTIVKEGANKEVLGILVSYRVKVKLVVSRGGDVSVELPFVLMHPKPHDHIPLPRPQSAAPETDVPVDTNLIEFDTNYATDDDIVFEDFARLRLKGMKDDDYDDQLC

Row | Compound | EC50 [1] | EC50 [2]
1 | Cc1c(-c2noc(-c3ccc(OC(C)C)c(C#N)c3)n2)ccc2c1CCN(CCCO)C2 [Example 8, 5-{3-[2-(3-Hydroxypropyl)-5-methyl-1,2,3,4-tetrahydro-6-isoquinolinyl]-1,2,4-oxadiazol-5-yl}-2-[(1-methylethyl)oxy]benzonitrile] | ≤ 100 nM | ≤ 10 nM
2 | CC(C)Oc1ccc(-c2nc(-c3ccc4c(c3)CCN(CCCC(=O)N(C)C)CC4)no2)cc1C#N [Example 26, 4-[7-(5-{3-Cyano-4-[(1-methylethyl)oxy]phenyl}-1,2,4-oxadiazol-3-yl)-1,2,4,5-tetrahydro-3H-3-benzazepin-3-yl]-N,N-dimethylbutanamide] | ≤ 100 nM | ≤ 10 nM
3 | CC(C)Oc1ccc(-c2nc(-c3ccc4c(c3)CCN(C(=O)CN3CC(O)C3)CC4)no2)cc1C#N [Example 106, 5-(3-{3-[(3-hydroxy-1-azetidinyl)acetyl]-2,3,4,5-tetrahydro-1H-3-benzazepin-7-yl}-1,2,4-oxadiazol-5-yl)-2-[(1-methylethyl)oxy]benzonitrile hydrochloride] | ≤ 1000 nM | ≤ 100 nM
4 | Cc1c(-c2noc(-c3ccc(OC(C)C)c(C#N)c3)n2)ccc2c1CCN(CC(=O)NCCO)C2 [Example 122, 2-[6-(5-{3-cyano-4-[(1-methylethyl)oxy]phenyl}-1,2,4-oxadiazol-3-yl)-5-methyl-3,4-dihydro-2(1H)-isoquinolinyl]-N-(2-hydroxyethyl)acetamide hydrochloride] | ≤ 10 nM | ≤ 10 nM
5 | Cc1c(-c2noc(-c3ccc(OC(C)C)c(C#N)c3)n2)ccc2c1CCN(CC(=O)NC(CO)CO)C2 [Example 125, 2-[6-(5-{3-cyano-4-[(1-methylethyl)oxy]phenyl}-1,2,4-oxadiazol-3-yl)-5-methyl-3,4-dihydro-2(1H)-isoquinolinyl]-N-[2-hydroxy-1-(hydroxymethyl)ethyl]acetamide hydrochloride] | ≤ 100 nM | ≤ 10 nM
6 | CC(C)Oc1ccc(-c2nc(-c3cccc4c3CCN(C(=O)[C@@H](N)CO)C4)no2)cc1C#N [Example 89, 2-[(1-methylethyl)oxy]-5-[3-(2-L-seryl-1,2,3,4-tetrahydro-5-isoquinolinyl)-1,2,4-oxadiazol-5-yl]benzonitrile hydrochloride] | 1 nM | ≤ 10 nM
7 | CCNC(=O)NCCN1CCc2ccc(-c3noc(-c4ccc(OC(C)C)c(C#N)c4)n3)cc2CC1 [Example 105, N-{2-[7-(5-{3-cyano-4-[(1-methylethyl)oxy]phenyl}-1,2,4-oxadiazol-3-yl)-1,2,4,5-tetrahydro-3H-3-benzazepin-3-yl]ethyl}-N′-ethylurea] | ≤ 10 nM | ≤ 100 nM
8 | CNC(=O)CCCN1CCc2ccc(-c3noc(-c4ccc(OC(C)C)c(C#N)c4)n3)cc2CC1 [Example 24, 4-[7-(5-{3-Cyano-4-[(1-methylethyl)oxy]phenyl}-1,2,4-oxadiazol-3-yl)-1,2,4,5-tetrahydro-3H-3-benzazepin-3-yl]-N-methylbutanamide] | ≤ 100 nM | ≤ 10 nM
9 | CC(C)Oc1ccc(-c2nc(-c3ccc4c(c3)CCN(C(=O)CN)CC4)no2)cc1C#N [Example 48, 5-[3-(3-glycyl-2,3,4,5-tetrahydro-1H-3-benzazepin-7-yl)-1,2,4-oxadiazol-5-yl]-2-[(1-methylethyl)oxy]benzonitrile trifluoroacetate] | ≤ 10 nM | ≤ 10 nM
10 | Cc1c(-c2noc(-c3ccc(OC(C)C)c(C#N)c3)n2)ccc2c1CCN(CCC(N)=O)C2 [Example 1, 3-[6-(5-{3-Cyano-4-[(1-methylethyl)oxy]phenyl}-1,2,4-oxadiazol-3-yl)-5-methyl-3,4-dihydro-2(1H)-isoquinolinyl]propanamide] | ≤ 100 nM | ≤ 10 nM
11 | CC(C)Oc1ccc(-c2nnc(-c3ccc4c(c3)CCN(CCC(N)=O)C4)s2)cc1C#N [Example 47, 3-[6-(5-{3-cyano-4-[(1-methylethyl)oxy]phenyl}-1,3,4-thiadiazol-2-yl)-3,4-dihydro-2(1H)-isoquinolinyl]propanamide] | ≤ 1000 nM | ≤ 100 nM
12 | COCCN1CCc2c(ccc(-c3noc(-c4ccc(OC(C)C)c(C#N)c4)n3)c2C)C1 [Example 9, 2-[(1-Methylethyl)oxy]-5-(3-{5-methyl-2-[2-(methyloxy)ethyl]-1,2,3,4-tetrahydro-6-isoquinolinyl}-1,2,4-oxadiazol-5-yl)benzonitrile] | ≤ 100 nM | ≤ 100 nM
13 | Cc1c(-c2noc(-c3ccc(OC(C)C)c(C#N)c3)n2)ccc2c1CCN(C(=O)CNCCO)CC2 [Example 155, 5-(3-{3-[N-(2-hydroxyethyl)glycyl]-6-methyl-2,3,4,5-tetrahydro-1H-3-benzazepin-7-yl}-1,2,4-oxadiazol-5-yl)-2-[(1-methylethyl)oxy]benzonitrile] | 1 nM | ≤ 10 nM

Second part, the molecule after the results:

Row | EC50 [1] | EC50 [2] | Compound
14 | ≤ 100 nM | ≤ 10 nM | Cc1c(-c2noc(-c3ccc(OC(C)C)c(C#N)c3)n2)ccc2c1CCN(C(=O)CCN)C2 [Example 39, 5-[3-(2-β-Alanyl-5-methyl-1,2,3,4-tetrahydro-6-isoquinolinyl)-1,2,4-oxadiazol-5-yl]-2-[(1-methylethyl)oxy]benzonitrile hydrochloride]
15 | ≤ 100 nM | ≤ 100 nM | N#Cc1cc(-c2nc(-c3ccc4c(c3)CCN(C[C@H](O)CO)CC4)no2)ccc1OCC(F)(F)F [Example 135, 5-(3-{3-[(2S)-2,3-dihydroxypropyl]-2,3,4,5-tetrahydro-1H-3-benzazepin-7-yl}-1,2,4-oxadiazol-5-yl)-2-[(2,2,2-trifluoroethyl)oxy]benzonitrile]
16 | ≤ 100 nM | ≤ 100 nM | CNCCC(=O)N1CCc2ccc(-c3noc(-c4ccc(OC(C)C)c(C#N)c4)n3)cc2CC1 [Example 67, 5-{3-[3-(N-methyl-b-alanyl)-2,3,4,5-tetrahydro-1H-3-benzazepin-7-yl]-1,2,4-oxadiazol-5-yl}-2-[(1-methylethyl)oxy]benzonitrile]
17 | ≤ 100 nM | ≤ 10 nM | Cc1c(-c2noc(-c3ccc(OC(C)C)c(C#N)c3)n2)ccc2c1CCN(CC(=O)N[C@H](C)CO)C2 [Example 118, 2-[6-(5-{3-cyano-4-[(1-methylethyl)oxy]phenyl}-1,2,4-oxadiazol-3-yl)-5-methyl-3,4-dihydro-2(1H)-isoquinolinyl]-N-(1R)-2-hydroxy-1-methylethyl]acetamide hydrochloride]
18 | ≤ 1000 nM | ≤ 100 nM | Cc1c(-c2noc(-c3cnc(OC(C)C)c(C#N)c3)n2)ccc2c1CCN(C[C@H](O)CO)C2 [Example 132, 5-(3-{2-[(2S)-2,3-dihydroxypropyl]-5-methyl-1,2,3,4-tetrahydro-6-isoquinolinyl}-1,2,4-oxadiazol-5-yl)-2-[(1-methylethyl)oxy]-3-pyridinecarbonitrile]
19 | ≤ 100 nM | ≤ 10 nM | Cc1c(-c2noc(-c3cnc(OC(C)C)c(C#N)c3)n2)ccc2c1CCN(C(=O)[C@@H](N)[C@@H](C)O)C2 [Example 79, 2-[(1-methylethyl)oxy]-5-[3-(5-methyl-2-L-threonyl-1,2,3,4-tetrahydro-6-isoquinolinyl)-1,2,4-oxadiazol-5-yl]-3-pyridinecarbonitrile hydrochloride]
20 | ≤ 100 nM | ≤ 10 nM | Cc1c(-c2noc(-c3ccc(OC(C)C)c(C#N)c3)n2)ccc2c1CCN(CC(=O)N1CC(O)C1)C2 [Example 123, 5-(3-{2-[2-(3-hydroxy-1-azetidinyl)-2-oxoethyl]-5-methyl-1,2,3,4-tetrahydro-6-isoquinolinyl}-1,2,4-oxadiazol-5-yl)-2-[(1-methylethyl)oxy]benzonitrile hydrochloride]
21 | > 10000 nM | ≤ 10 nM | Cc1c(-c2noc(-c3ccc(OC(C)C)c(C#N)c3)n2)ccc2c1CCN(C(=O)CNC[C@@H](C)O)C2 [Example 129, 5-[3-(2-{N-[(2R)-2-hydroxypropyl]glycyl}-5-methyl-1,2,3,4-tetrahydro-6-isoquinolinyl)-1,2,4-oxadiazol-5-yl]-2-[(1-methylethyl)oxy]benzonitrile hydrochloride]
22 | ≤ 100 nM | ≤ 10 nM | CC(C)Oc1ccc(-c2nc(-c3ccc4c(c3)CCN(CC(=O)NC[C@H](C)O)CC4)no2)cc1C#N [Example 75, 2-[7-(5-{3-cyano-4-[(1-methylethyl)oxy]phenyl}-1,2,4-oxadiazol-3-yl)-1,2,4,5-tetrahydro-3H-3-benzazepin-3-yl]-N-[(2S)-2-hydroxypropyl]acetamide hydrochloride]
23 | ≤ 1000 nM | ≤ 100 nM | CC(C)Oc1ccc(-c2nc(-c3ccc4c(c3)CCN(C(=O)CNC[C@H](O)CO)CC4)no2)cc1C#N [Example 196, 5-[3-(3-{N-[(2S)-2,3-dihydroxypropyl]glycyl}-2,3,4,5-tetrahydro-1H-3-benzazepin-7-yl)-1,2,4-oxadiazol-5-yl]-2-[(1-methylethyl)oxy]benzonitrile hydrochloride]
24 | ≤ 100 nM | ≤ 10 nM | Cc1c(-c2noc(-c3cnc(OC(C)C)c(C#N)c3)n2)ccc2c1CCN(C(CO)CO)C2 [Example 134, 5-(3-{2-[2-hydroxy-1-(hydroxymethyl)ethyl]-5-methyl-1,2,3,4-tetrahydro-6-isoquinolinyl}-1,2,4-oxadiazol-5-yl)-2-[(1-methylethyl)oxy]-3-pyridinecarbonitrile hydrochloride]
25 | ≤ 100 nM | ≤ 100 nM | Cc1c(-c2noc(-c3ccc(OC(C)C)c(C#N)c3)n2)ccc2c1CCN(C[C@H](O)CO)C2 [Example 71, 5-(3-{2-[(2S)-2,3-dihydroxypropyl]-5-methyl-1,2,3,4-tetrahydro-6-isoquinolinyl}-1,2,4-oxadiazol-5-yl)-2-[(1-methylethyl)oxy]benzonitrile hydrochloride]
